Reference: patent US9102648B1, “Bioavailable diacylhydrazine ligands for modulating the expression of exogenous genes via an ecdysone receptor complex” (Intrexon Corporation, priority 2003, dated 2015)

Tested on: mutated ecdysone receptor-based gene switch
Assay: In vivo SEAP induction, ligand by IP injection
Set-up: species or system C57BL/6 mouse
Conditions: mouse serum
Method in brief: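 Gene switch plasmids (receptor under CMV promoter) electroporated into quadriceps of C57BL/6 mice; 3 days later ligand given IP at 2.6 μmol or 26 nmol in 50 μL DMSO per mouse. Serum SEAP measured by chemiluminescence 2-11 days after dosing, averaged over four animals, expressed as % of GS™-E ligand induction.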

CCc1ccc(C(=O)NN(C(=O)c2cc(C)cc(C)c2)C(C)C(C)(C)C)cc1 (stereo not drawn) [RG-103451]
Secreted Alkaline Phosphatase (percentage of GS ™-E ligand induction) Day 2 (IP 2.6 μmol ligand 3 days after electroporation, day 2 after ligand): 76 percentage of GS ™-E ligand induction | Secreted Alkaline Phosphatase (percentage of GS ™-E ligand induction) Day 3 (IP 2.6 μmol ligand, day 3 after ligand): 73 percentage of GS ™-E ligand induction | Secreted Alkaline Phosphatase (percentage of GS ™-E ligand induction) Day 11 (IP 2.6 μmol ligand, day 11 after ligand): 371 percentage of GS ™-E ligand induction
